The text below walks through data of US8063077B2, “Factor Xa inhibitors” (Millennium Pharmaceuticals, Inc., priority 2006, dated 2011).

The structures appear in SMILES notation. pIC50: −log10 of the molar value.

T1 sequence (P00742 235-488 limits assumed): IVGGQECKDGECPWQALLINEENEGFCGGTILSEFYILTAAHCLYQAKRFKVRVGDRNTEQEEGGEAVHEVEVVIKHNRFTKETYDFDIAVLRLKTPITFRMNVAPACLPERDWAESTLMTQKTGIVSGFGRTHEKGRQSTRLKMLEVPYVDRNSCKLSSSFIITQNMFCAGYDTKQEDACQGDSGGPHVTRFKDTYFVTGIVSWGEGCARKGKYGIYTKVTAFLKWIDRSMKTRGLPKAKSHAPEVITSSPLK
T1 sequence (P00742 41-179 partner limits assumed): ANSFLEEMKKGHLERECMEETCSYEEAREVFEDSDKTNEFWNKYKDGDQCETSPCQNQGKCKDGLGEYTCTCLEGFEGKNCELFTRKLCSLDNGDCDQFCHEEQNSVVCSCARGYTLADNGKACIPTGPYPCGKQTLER

This assay concerns the target T1, human plasma protein factor Xa (Homo sapiens, UniProt P00742).
T1 construct: The human plasma protein factor Xa was purchased from Haematologic Technologies; purchased Haematologic Technologies (Essex Junction, Vt.); host or cells: human plasma
Nature of the assay: Factor Xa IC50 determination, cleavage of paranitroanilide substrate S-2765. The assay is classed as biochemical. The note with it: factor Xa 1 nM, S2765 100 μM, Tris buffered saline pH 7.4, 5% DMSO. The source says:
This example illustrates methods for evaluating the compounds of the invention, along with results obtained for such assays. The in vitro and in vivo human Factor Xa activities of the inventive compounds can be determined by various procedures known in the art, such as a test for their ability to inhibit the activity of human plasma Factor Xa. […] The IC50 value is the concentration (in nM) of the compound required to provide 50% inhibition of human Factor Xa proteolytic activity.
An in vitro assay for detecting and measuring inhibition activity against Factor Xa is as follows:
The substrate S-2765 (Z-D-Arg-Gly-Arg-pNA•HCl) was obtained from Diapharma (West Chester, Ohio).
The human plasma protein factor Xa was purchased from Haematologic Technologies (Essex Junction, Vt.).
All assays, which are performed in 96-well microtiter plates, measure proteolytic activity of the enzyme (factor Xa) by following cleavage of a paranitroanilide peptide substrate. The assay buffer used for proteolytic assays was Tris buffered saline (20 mM Tris, 150 mM NaCl, 5 mM CaCl2, 0.1% Bovine serum albumin (BSA), 5% Dimethly Sulfoxide (DMSO) pH 7.4). In a 96-well microtiter plate, inhibitor was serially diluted to give a range of final concentrations from 0.01 nM to 10 μM. Duplicate sets of wells were assayed and control wells without inhibitor were included. Enzyme was added to each well, (factor Xa concentration=1 nM), the plate was shaken for 5 seconds and then incubated for 5 minutes at room temperature. S2765 was added (100 μM final) and the plate was shaken for 5 seconds (final volume in each well was 200 μl). The degree of substrate hydrolysis was measured at 405 nm on a Thermomax plate reader (Molecular Devices, Sunnyvale, Calif.) for 2 minutes. The initial velocities of substrate cleavage (mOD/min), for each range of inhibitor concentrations, were fitted to a four parameter equation using Softmax data analysis software. The parameter C, derived from the resulting curve-fit, corresponded to the concentration for half maximal inhibition (IC50).
`NC(=O)/N=c1\ccccn1-c1ccc(-n2cnc(CNC(=O)c3ccc(Cl)s3)c2)cc1` [Compound 61, N-((1-(4-(2-(carbamoylimino)pyridin-1(2H)-yl)phenyl)-1H-imidazol-4-yl)methyl)-5-chlorothiophene-2-carboxamide] gave a pIC50 not below 7.00.
In the case of `O=C(NCc1cn(-c2ccc(-n3ccccc3=S)cc2)cn1)c1ccc(Cl)s1` [Compound 30, 5-Chloro-N-((1-(4-(2-thioxopyridin-1(2H)-yl)phenyl)-1H-imidazol-4-yl)methyl)thiophene-2-carboxamide] it was not below 7.00; in that of `CS(=O)(=O)c1nc(CNC(=O)c2ccc(Cl)s2)cn1-c1ccc(-n2cccc(F)c2=O)cc1` [Compound 67, 5-chloro-N-((1-(4-(3-fluoro-2-oxopyridin-1(2H)-yl)phenyl)-2-(methylsulfonyl)-1H-imidazol-4-yl)methyl)thiophene-2-carboxamide], not below 7.00; in that of `C#Cc1ccc(C(=O)NCc2cn(-c3ccc(-n4ccccc4=O)cc3)cn2)s1` [Compound 32, 5-Ethynyl-N-((1-(4-(2-oxopyridin-1(2H)-yl)phenyl)-1H-imidazol-4-yl)methyl)thiophene-2-carboxamide], not below 7.00.
In the case of `Cn1cc(Cl)cc1C(=O)NCc1cn(-c2ccc(-n3ccccc3=O)cc2)cn1` [Compound 37, 4-chloro-1-methyl-N-((1-(4-(2-oxopyridin-1(2H)-yl)phenyl)-1H-imidazol-4-yl)methyl)-1H-pyrrole-2-carboxamide], the pIC50 was not above 6.30.
`CCN1CCN(c2ccc(-n3cnc(CNC(=O)c4ccc(Cl)s4)c3)cc2)C(=O)C1=O` [Compound 60, 5-chloro-N-((1-(4-(4-ethyl-2,3-dioxopiperazin-1-yl)phenyl)-1H-imidazol-4-yl)methyl)thiophene-2-carboxamide] gave a pIC50 not above 6.30.
As for `C[S+]([O-])c1cc(-n2ccccc2=O)ccc1-n1cnc(CNC(=O)c2ccc(Cl)s2)c1` (stereo not shown) [Compound 23, 5-chloro-N-((1-(2-(methylsulfinyl)-4-(2-oxopyridin-1(2H)-yl)phenyl)-1H-imidazol-4-yl)methyl)thiophene-2-carboxamide], the figure is not below 7.00.
The compound `O=C(NCc1cn(-c2ccc(-n3ccccc3=O)cc2)cn1)c1ccc2cc[nH]c2c1` [Compound 31, N-((1-(4-(2-oxopyridin-1(2H)-yl)phenyl)-1H-imidazol-4-yl)methyl)-1H-indole-6-carboxamide] showed a pIC50 not above 6.30.
In the case of `O=C(NCc1cn(-c2ccc(-n3ccccc3=O)cc2F)cn1)c1ccc(Cl)s1` [Compound 21, 5-Chloro-N-((1-(2-fluoro-4-(2-oxopyridin-1(2H)-yl)phenyl)-1H-imidazol-4-yl)methyl)thiophene-2-carboxamide] it was not below 7.00; in that of `O=C(NCc1cn(-c2ccc(N3CCCNC3=O)cc2)cn1)c1ccc(Cl)s1` [Compound 18, 5-Chloro-N-((1-(4-(2-oxo-tetrahydropyrimidin-1(2H)-yl)phenyl)-1H-imidazol-4-yl)methyl)thiophene-2-carboxamide], not below 7.00.
As for `C/N=c1\ccccn1-c1ccc(-n2cnc(CNC(=O)c3ccc(Cl)s3)c2)cc1` [Compound 34, (E)-5-chloro-N-((1-(4-(2-(methylimino)pyridin-1(2H)-yl)phenyl)-1H-imidazol-4-yl)methyl)thiophene-2-carboxamide], the figure is not below 7.00; as for `O=C(NCc1cn(-c2ccc(-n3ccccc3=O)cc2NCCO)cn1)c1ccc(Cl)s1` [Compound 27, 5-Chloro-N-((1-(2-(2-hydroxyethylamino)-4-(2-oxopyridin-1(2H)-yl)phenyl)-1H-imidazol-4-yl)methyl)thiophene-2-carboxamide], not below 7.00; as for `Cc1nc(CNC(=O)c2ccc(Cl)s2)cn1-c1ccc(-n2ccccc2=O)cc1` [Compound 62, 5-Chloro-N-((2-methyl-1-(4-(2-oxopyridin-1(2H)-yl)phenyl)-1H-imidazol-4-yl)methyl)thiophene-2-carboxamide], not below 7.00.
